PubChem BioAssay (NCI)
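Values below derive from 48-hour exposures of cells grown in 96-well plates, with endpoints linearly interpolated between the two concentrations bracketing the appropriate inhibition level. The concentration for 50% growth inhibition is given as GI50. TGI denotes the concentration required for complete inhibition of growth.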

Experiments:
Assay in all cases: inhibition of tumour cell growth, NCI panel, 48 h
786-0 renal = test system: 786-0 renal
A498 renal = test system: A498 renal
A549 NSCLC = test system: A549 NSCLC
ACHN renal = test system: ACHN renal
BT-549 breast = test system: BT-549 breast
CAKI-1 renal = test system: CAKI-1 renal
CCRF-CEM leukemia = test system: CCRF-CEM leukemia
COLO 205 colon = test system: COLO 205 colon
DU-145 prostate = test system: DU-145 prostate
EKVX NSCLC = test system: EKVX NSCLC
HCC-2998 colon = test system: HCC-2998 colon
HCT-116 colon = test system: HCT-116 colon
HCT-15 colon = test system: HCT-15 colon
HL-60(TB) leukemia = test system: HL-60(TB) leukemia
HOP-62 NSCLC = test system: HOP-62 NSCLC
HOP-92 NSCLC = test system: HOP-92 NSCLC
HS 578T breast = test system: HS 578T breast
HT29 colon = test system: HT29 colon
IGROV1 ovarian = test system: IGROV1 ovarian
K-562 leukemia = test system: K-562 leukemia
KM12 colon = test system: KM12 colon
LOX IMVI melanoma = test system: LOX IMVI melanoma
M14 melanoma = test system: M14 melanoma
MALME-3M melanoma = test system: MALME-3M melanoma
MCF7 breast = test system: MCF7 breast
MDA-MB-231 breast = test system: MDA-MB-231 breast
MDA-MB-435 = test system: MDA-MB-435
MDA-MB-468 breast = test system: MDA-MB-468 breast
MOLT-4 leukemia = test system: MOLT-4 leukemia
NCI-H226 lung = test system: NCI-H226 lung
NCI-H23 lung = test system: NCI-H23 lung
NCI-H460 lung = test system: NCI-H460 lung
NCI-H522 lung = test system: NCI-H522 lung
NCI/ADR-RES ovarian = test system: NCI/ADR-RES ovarian
OVCAR-3 ovarian = test system: OVCAR-3 ovarian
OVCAR-4 ovarian = test system: OVCAR-4 ovarian
OVCAR-5 ovarian = test system: OVCAR-5 ovarian
OVCAR-8 ovarian = test system: OVCAR-8 ovarian
PC-3 prostate = test system: PC-3 prostate
RPMI-8226 leukemia = test system: RPMI-8226 leukemia
RXF 393 renal = test system: RXF 393 renal
SF-268 CNS = test system: SF-268 CNS
SF-295 CNS = test system: SF-295 CNS
SF-539 CNS = test system: SF-539 CNS
SK-MEL-2 melanoma = test system: SK-MEL-2 melanoma
SK-MEL-28 melanoma = test system: SK-MEL-28 melanoma
SK-MEL-5 melanoma = test system: SK-MEL-5 melanoma
SK-OV-3 ovarian = test system: SK-OV-3 ovarian
SN12C renal = test system: SN12C renal
SNB-19 CNS = test system: SNB-19 CNS
SNB-75 CNS = test system: SNB-75 CNS
SR leukemia = test system: SR leukemia
SW-620 colon = test system: SW-620 colon
T-47D breast = test system: T-47D breast
TK-10 renal = test system: TK-10 renal
U251 CNS = test system: U251 CNS
UACC-257 melanoma = test system: UACC-257 melanoma
UACC-62 melanoma = test system: UACC-62 melanoma
UO-31 renal = test system: UO-31 renal

Work on `O=C(Nc1cccc(C(F)(F)F)c1)c1cncc(C#Cc2cnc3ccc(N4CCOCC4)nn23)c1` yielded a GI50 (786-0 renal) of 8.11 µM, a TGI (786-0 renal) of 42.9 µM and a GI50 (A498 renal) of 5.53 µM. For the same molecule, the TGI (A498 renal) was 16.6 µM, the GI50 (A549 NSCLC) was 8.38 µM and the TGI (A549 NSCLC) was > 86.8 µM. The GI50 (ACHN renal) was 3.67 µM, the TGI (ACHN renal) was 42.3 µM and the GI50 (BT-549 breast) was 5.13 µM. For the same molecule, the TGI (BT-549 breast) was 26.3 µM, the GI50 (CAKI-1 renal) was 4.23 µM and the TGI (CAKI-1 renal) was 47.4 µM. For the same molecule, the GI50 (CCRF-CEM leukemia) was 5.21 µM, the TGI (CCRF-CEM leukemia) was 48.8 µM and the GI50 (COLO 205 colon) was 3.2 µM. The TGI (COLO 205 colon) was 11.4 µM, the GI50 (DU-145 prostate) was 4.3 µM and the TGI (DU-145 prostate) was 80 µM. It also gave a GI50 (EKVX NSCLC) of 4.49 µM, a TGI (EKVX NSCLC) of 21 µM and a GI50 (HCC-2998 colon) of 5.97 µM. The TGI (HCC-2998 colon) was 35.6 µM, the GI50 (HCT-116 colon) was 1.92 µM and the TGI (HCT-116 colon) was 13.4 µM. It also gave a GI50 (HCT-15 colon) of 6.58 µM, a TGI (HCT-15 colon) of 51.2 µM and a GI50 (HL-60(TB) leukemia) of 0.834 µM. For the same molecule, the TGI (HL-60(TB) leukemia) was 42.3 µM, the GI50 (HOP-62 NSCLC) was 2.39 µM and the TGI (HOP-62 NSCLC) was 35.4 µM. It also gave a GI50 (HOP-92 NSCLC) of 1.24 µM, a TGI (HOP-92 NSCLC) of 3.47 µM and a GI50 (HS 578T breast) of 1.62 µM. The TGI (HS 578T breast) was 5.45 µM, the GI50 (HT29 colon) was 3.12 µM and the TGI (HT29 colon) was 20.8 µM. The GI50 (IGROV1 ovarian) was 2.08 µM, the TGI (IGROV1 ovarian) was 12.4 µM and the GI50 (K-562 leukemia) was 1.89 µM. For the same molecule, the TGI (K-562 leukemia) was > 86.8 µM, the GI50 (KM12 colon) was 0.00868 µM and the TGI (KM12 colon) was 14.1 µM. It also gave a GI50 (LOX IMVI melanoma) of 2.55 µM, a TGI (LOX IMVI melanoma) of 11.6 µM and a GI50 (M14 melanoma) of 3.47 µM. It also gave a TGI (M14 melanoma) of 14.8 µM, a GI50 (MALME-3M melanoma) of 4.24 µM and a TGI (MALME-3M melanoma) of 18.7 µM. The GI50 (MCF7 breast) was 2.76 µM, the TGI (MCF7 breast) was 26.4 µM and the GI50 (MDA-MB-231 breast) was 1.13 µM. The TGI (MDA-MB-231 breast) was 9.33 µM, the GI50 (MDA-MB-435) was 4.33 µM and the TGI (MDA-MB-435) was 18.2 µM. For the same molecule, the GI50 (MDA-MB-468 breast) was 12.8 µM, the TGI (MDA-MB-468 breast) was 27 µM and the GI50 (MOLT-4 leukemia) was 14.6 µM. For the same molecule, the TGI (MOLT-4 leukemia) was > 86.8 µM, the GI50 (NCI-H226 lung) was 1.7 µM and the TGI (NCI-H226 lung) was > 86.8 µM. For the same molecule, the GI50 (NCI-H23 lung) was 2.38 µM, the TGI (NCI-H23 lung) was 11.7 µM and the GI50 (NCI-H460 lung) was 11 µM. It also gave a TGI (NCI-H460 lung) of 27.4 µM, a GI50 (NCI-H522 lung) of 9.08 µM and a TGI (NCI-H522 lung) of 24.5 µM. It also gave a GI50 (NCI/ADR-RES ovarian) of 9.21 µM, a TGI (NCI/ADR-RES ovarian) of 44.6 µM and a GI50 (OVCAR-3 ovarian) of 8.91 µM. The TGI (OVCAR-3 ovarian) was 52.6 µM, the GI50 (OVCAR-4 ovarian) was 15 µM and the TGI (OVCAR-4 ovarian) was > 86.8 µM. For the same molecule, the GI50 (OVCAR-5 ovarian) was 2.74 µM, the TGI (OVCAR-5 ovarian) was 38.6 µM and the GI50 (OVCAR-8 ovarian) was 5.9 µM. For the same molecule, the TGI (OVCAR-8 ovarian) was 82.2 µM, the GI50 (PC-3 prostate) was 10.8 µM and the TGI (PC-3 prostate) was 72.6 µM. For the same molecule, the GI50 (RPMI-8226 leukemia) was 12.5 µM, the TGI (RPMI-8226 leukemia) was 44.9 µM and the GI50 (RXF 393 renal) was 2.36 µM. For the same molecule, the TGI (RXF 393 renal) was 6.36 µM, the GI50 (SF-268 CNS) was 4.58 µM and the TGI (SF-268 CNS) was 34.8 µM. It also gave a GI50 (SF-295 CNS) of 11 µM, a TGI (SF-295 CNS) of 29.8 µM and a GI50 (SF-539 CNS) of 1.11 µM. It also gave a TGI (SF-539 CNS) of 3.01 µM, a GI50 (SK-MEL-2 melanoma) of 3.87 µM and a TGI (SK-MEL-2 melanoma) of 13.6 µM. The GI50 (SK-MEL-28 melanoma) was 4.85 µM, the TGI (SK-MEL-28 melanoma) was 23 µM and the GI50 (SK-MEL-5 melanoma) was 11.2 µM. For the same molecule, the TGI (SK-MEL-5 melanoma) was 22.8 µM, the GI50 (SK-OV-3 ovarian) was 7.01 µM and the TGI (SK-OV-3 ovarian) was 48.8 µM. It also gave a GI50 (SN12C renal) of 2.49 µM, a TGI (SN12C renal) of 25.3 µM and a GI50 (SNB-19 CNS) of 17.1 µM. The TGI (SNB-19 CNS) was 49.8 µM, the GI50 (SNB-75 CNS) was 1.76 µM and the TGI (SNB-75 CNS) was 7.71 µM. The GI50 (SR leukemia) was 2.94 µM, the TGI (SR leukemia) was > 86.8 µM and the GI50 (SW-620 colon) was 3.03 µM. The TGI (SW-620 colon) was > 86.8 µM, the GI50 (T-47D breast) was 9.23 µM and the TGI (T-47D breast) was 62.1 µM. It also gave a GI50 (TK-10 renal) of 6.98 µM, a TGI (TK-10 renal) of 51.9 µM and a GI50 (U251 CNS) of 15.4 µM. It also gave a TGI (U251 CNS) of 67.2 µM, a GI50 (UACC-257 melanoma) of 10.1 µM and a TGI (UACC-257 melanoma) of 56.6 µM. It also gave a GI50 (UACC-62 melanoma) of 2.74 µM, a TGI (UACC-62 melanoma) of 13.4 µM and a GI50 (UO-31 renal) of 3.31 µM. It also gave a TGI (UO-31 renal) of 19.2 µM.
